According to article PMC9890698 (BMC Biology, 2023):
Values joined by “and” are separate entries in the source; they are usually repeats but may differ in a detail not shown here. Equal entries are not always repeated.

How the values were obtained:
Human P2Y1-R = biological target: T1, Human P2Y1-R (Homo sapiens, UniProt P47900); test: Gαq protein activation BRET2 assay (Gαq-RLuc8/GFP2-Gγ2/Gβ1) in HEK293T cells expressing P2Y1-R; assay type: cell-based; set-up: ADP-modulated BRET / MRS2179-modulated BRET: unit not given here; conditions: for G protein signaling, Ligand-modulated BRET (% of maximum MRS2179 mean value): Figure 4a, individual replicates
T1 construct: expressed in transfected cells; host or cells: HEK293T/17
T1 sequence (P47900 whole entry): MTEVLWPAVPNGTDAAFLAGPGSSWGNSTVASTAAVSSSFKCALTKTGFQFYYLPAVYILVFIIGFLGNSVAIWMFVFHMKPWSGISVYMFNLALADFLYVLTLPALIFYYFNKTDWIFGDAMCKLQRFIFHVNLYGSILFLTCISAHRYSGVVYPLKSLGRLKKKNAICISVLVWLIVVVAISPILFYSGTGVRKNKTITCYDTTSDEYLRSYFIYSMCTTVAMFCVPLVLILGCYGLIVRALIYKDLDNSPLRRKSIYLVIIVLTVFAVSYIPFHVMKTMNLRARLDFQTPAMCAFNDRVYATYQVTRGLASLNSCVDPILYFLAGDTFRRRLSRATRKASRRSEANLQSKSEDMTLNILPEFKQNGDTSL
Description: As previously described, using a BRET^2 (bioluminescence resonance energy transfer)-based assay, we directly monitored the basal Gαq protein activation by measuring the interaction between Gαq and Gγ2 subunits of the Gαqβ1γ2 heterotrimer complex. Indeed, this assay is based on the non-radiative transfer between the Renilla reniformis luciferase (RLuc8) energy donor fused to the Gαq protein subunit and the fluorescent GFP2 energy acceptor fused to Gγ2 protein subunit (Fig. 1a). […] By contrast, ligand-independent constitutive receptor activation or agonist-induced receptor activation will promote Gαq/Gγ2 subunit dissociation, thereby leading to a decrease of the basal BRET signal (Fig. 1a). […] To preclude any P2Y1-R activation by a passive release of ADP by HEK293T cells, we performed similar experiments in the presence of high concentration of apyrase (0.2U/mL) to degrade any trace of ADP in the medium (Additional File 2: Fig. S2a). Under these conditions, P2Y1-R expression still induces a marked and significant decrease of the basal BRET signal compared to control cells (pcDNA3.1), thereby supporting a P2Y1-R-dependent constitutive activation of Gαq protein. […] Of note, because P2Y1-R and AT1-R were respectively Myc- and HA-tagged and were thus detected using different primary antibodies, their expression at the cell surface cannot be compared between each other’s.
Human P2Y1-R (NCBI Reference Sequence: NM_002563.2) and P2Y12-R (NCBI Reference Sequence: NM_022788.3) were fused to double Myc epitope and rat AT1-R (NCBI Reference Sequence: NM_030985.4) to HA tag in N-terminus extracellular region. Alternatively, receptors were also fused to Venus tag in C-terminus intracellular region. Plasmids encoding Gαq-RLuc8, GFP2-Gγ2 and untagged Gβ1 were previously described. ADP was purchased from Sigma-Aldrich/Merck (Darmstadt, Germany). […] The Gq inhibitor (FR900359) was kindly supplied by Evi Kostenis (University of Bonn. Germany).
G protein activation and β-arrestin 2 recruitment were performed as previously described. Briefly, vectors encoding receptors, Gαq-RLuc8, GFP2-Gγ2, Gβ1, or β-arrestin 2 were transiently cotransfected into HEK293T/17 cells as indicated in the figure legends. Forty-eight hours after transfection, cells were washed and resuspended in PBS containing 0.1% (w/v) glucose at room temperature and then distributed (80 μg proteins/well) in a 96-well microplate (PerkinElmer). For G protein activation experiments (BRET^2), cells were incubated in the absence (basal BRET signal) or in the presence of ligand for 1 minute. BRET signal between RLuc8 and GFP2 was measured after addition of the luciferase substrate coelenterazine 400a (5 μM). For β-arrestin 2 recruitment (BRET^1), cells were stimulated with ligands for 5 or 15 min. BRET signal was recorded after incubation with coelenterazine h (5 μM) for 8 min. For kinetics studies, BRET signal between RLuc and Venus was recorded at 20-s intervals at basal state for the 2 first minutes and then for 5 min after ligand injection. For saturation curves (BRET^1), the expression level of Venus- or RLuc-tagged protein was determined by direct measurement of total fluorescence and luminescence respectively. Total fluorescence was first measured with an excitation filter at 485 nm and an emission filter at 520 nm. Then, the same sample was incubated for 8 minutes with 5 μM coelenterazine h and the total luminescence was measured. BRET^2 and BRET^1 readings were collected using a modified Infinite F500 (Tecan Group Ltd). The BRET^2 signal was calculated by the ratio of emission of GFP2 (510–540 nm) to RLuc8 (370–450 nm) and the BRET^1 signal by the ratio of emission of Venus (520–570 nm) to RLuc (370–480 nm). […]

[1] = tested on: washed human platelets (P2Y1-R/Gαq signaling); test: IP1 accumulation assay (HTRF) in washed human platelets; assay type: cell-based; conditions: for IP1 concentration (% of basal mean at 30 minutes): Fig. S4a, MRS2179 10 µM, individual replicates; for Effect on IP1 levels: washed human platelets, ADP 100 μM, antagonists 10 μM, Gq inhibitor 100 nM, apyrase 0.02 U/mL, result in words
Procedure: As performed in HEK293T cells, we thus quantified intracellular IP1 levels to monitor Gαq protein-dependent signaling pathways.
Human platelets were prepared from adult healthy volunteers free of antiplatelet or anti-inflammatory medication since at least ten days. […] After two steps of centrifugation and suspension in Tyrode’s buffer (140 mM NaCl, 5 mM KCl, 5 mM KH2PO4, 1 mM MgSO4, 10 mM HEPES, 5 mM glucose and 0.35% (w/v) BSA, pH 6,7), washed platelets were suspended in the same buffer adjusted to pH 7.4 and containing 1 mM CaCl2. The final platelet suspension was adjusted to 3.10^8 platelets/mL and rested for 45 min in the presence of 0.02 U/mL apyrase and 10 μM indomethacin at 37 °C prior experiments. PGI2 (0.5 μM) was added before centrifugation steps to avoid platelet activation.
Quantification of intracellular IP1 was performed using the HTRF (Homogeneous Time Resolved Fluorescence) IP1 competitive immunoassay (IP-One Tb kit. Cisbio. France) according to the manufacturer’s instructions. Briefly, 20,000 HEK293T/17 cells or 3.10^6 platelets were distributed in a 384-well white microplate (Greiner) and incubated with the indicated molecules for 30 min or 2 h at 37 °C in the presence of 50 mM of LiCl to prevent IP1 degradation. After addition of d2-labeled IP1 (acceptor) and anti-IP1-Cryptate (donor) for 1 h, the specific FRET signals were calculated by the fluorescence ratio of the acceptor and donor emission signal (665/620 nm) collected using a modified Infinite F500 (Tecan Group Ltd). Conversion of the HTRF ratio of each sample into IP1 concentrations was performed on the basis of a standard curve to determine the linear dynamic range of the assay.

[2] = G protein signaling, Fig. 4a, 1 min

`CNc1ncnc2c1ncn2[C@H]1C[C@H](OP(=O)(O)O)[C@@H](COP(=O)(O)O)O1` [MRS2179] was tested. Which “Maximal efficacy (Emax ± s.e.m.), MRS2179-modulated BRET” value (Human P2Y1-R; Fig. 1f, 1 min stimulation, difference in BRET signal with and without ligand) did it give?
Its value is 0.1224 ± 0.01335.

What about the EC50 (Human P2Y1-R; Fig. 1f, MRS2179 inverse agonism on Gαq protein activity, 1 min) of the same compound?
The EC50 was 11.1 µM.

What about the “pEC50 ± s.e.m.” value (Human P2Y1-R; Fig. 1f, inverse agonism on Gαq protein activity, 1 min) of the same compound?
The value was 4.955 ± 0.1405.

What about the “G protein signaling, Ligand-modulated BRET (% of maximum MRS2179 mean value)” value (Human P2Y1-R; [Ligand] 1.00E-04 M) of the same compound?
Its value is 119.465 % of maximum MRS2179 mean value and 98.3727 % of maximum MRS2179 mean value and 97.2091 % of maximum MRS2179 mean value and 96.9774 % of maximum MRS2179 mean value and 99.1946 % of maximum MRS2179 mean value and 88.7807 % of maximum MRS2179 mean value.

And the “G protein signaling, Ligand-modulated BRET (% of maximum MRS2179 mean value)” value (Human P2Y1-R; [Ligand] 1.00E-05 M)?
Its value is 56.3081 % of maximum MRS2179 mean value and 33.7445 % of maximum MRS2179 mean value and 25.9535 % of maximum MRS2179 mean value and 52.677 % of maximum MRS2179 mean value and 40.3542 % of maximum MRS2179 mean value and 35.9046 % of maximum MRS2179 mean value.

And the “G protein signaling, Ligand-modulated BRET (% of maximum MRS2179 mean value)” value (Human P2Y1-R; [Ligand] 1.00E-06 M)?
The value was 9.486 % of maximum MRS2179 mean value and 10.5017 % of maximum MRS2179 mean value and 11.1842 % of maximum MRS2179 mean value and 16.1238 % of maximum MRS2179 mean value and -1.632 % of maximum MRS2179 mean value and 9.136 % of maximum MRS2179 mean value.

And the “G protein signaling, Ligand-modulated BRET (% of maximum MRS2179 mean value)” value (Human P2Y1-R; [Ligand] 1.00E-07 M)?
Its value is -1.306 % of maximum MRS2179 mean value and -6.5129 % of maximum MRS2179 mean value and -11.3924 % of maximum MRS2179 mean value and -9.0003 % of maximum MRS2179 mean value and -8.705 % of maximum MRS2179 mean value and -1.657 % of maximum MRS2179 mean value.

What about the “G protein signaling, Ligand-modulated BRET (% of maximum MRS2179 mean value)” value (Human P2Y1-R; [Ligand] 1.00E-08 M) of the same compound?
The value was 0.5671 % of maximum MRS2179 mean value and -5.257 % of maximum MRS2179 mean value and -11.3188 % of maximum MRS2179 mean value and -7.6778 % of maximum MRS2179 mean value and -4.305 % of maximum MRS2179 mean value and -3.069 % of maximum MRS2179 mean value.

And the “G protein signaling, Ligand-modulated BRET (% of maximum MRS2179 mean value)” value (Human P2Y1-R; [Ligand] 1.00E-09 M)?
Its value is -1.107 % of maximum MRS2179 mean value and -5.538 % of maximum MRS2179 mean value and -15.6317 % of maximum MRS2179 mean value and -13.6938 % of maximum MRS2179 mean value and -9.3466 % of maximum MRS2179 mean value and -3.722 % of maximum MRS2179 mean value.

And the “G protein signaling, Ligand-modulated BRET (% of maximum MRS2179 mean value)” value (Human P2Y1-R; [Ligand] 1.00E-10 M)?
Its value is -2.846 % of maximum MRS2179 mean value and -13.4143 % of maximum MRS2179 mean value and -1.422 % of maximum MRS2179 mean value and -10.0078 % of maximum MRS2179 mean value and -9.182 % of maximum MRS2179 mean value and 0.7769 % of maximum MRS2179 mean value.

What about the EC50 (Human P2Y1-R; [2]) of the same compound?
The EC50 was 15.2 µM.

And the “pEC50 ± s.e.m.” value (Human P2Y1-R; [2])?
The value was 4.817 ± 0.0671.

And the “Emax ± s.e.m.” value (Human P2Y1-R; G protein signaling, Fig. 4a, 1 min, normalized to the mean value of maximal MRS2179 response, in %)?
The value was 115.7 ± 5.057.

And the “Behaviour on P2Y1-R-dependent constitutive Gαq protein activation” value (Human P2Y1-R; HEK293T cells, result in words)?
The value was “inverse agonist”.

What about the “MRS2179-modulated BRET” value (Human P2Y1-R; [MRS2179] 1.00E-04 M, 1 min) of the same compound?
The value was 0.06995 and 0.1332 and 0.1164 and 0.136 and 0.09077.

And the “IP1 concentration (% of basal mean at 30 minutes)” value ([1]; 30 minutes)?
Its value is 61.0057 % of basal mean at 30 minutes and 99.6481 % of basal mean at 30 minutes and 82.2183 % of basal mean at 30 minutes and 56.7485 % of basal mean at 30 minutes.

What about the “IP1 concentration (% of basal mean at 30 minutes)” value ([1]; 2 hours) of the same compound?
Its value is 94.0172 % of basal mean at 30 minutes and 113.32 % of basal mean at 30 minutes and 105.9 % of basal mean at 30 minutes and 70.9752 % of basal mean at 30 minutes.

What about the “IP1 concentration (% matched basal values)” value ([1]; human platelets, MRS2179 10 μM, 2 h, individual donors) of the same compound?
The value was 129.303 % matched basal values and 123.213 % matched basal values and 123.793 % matched basal values and 163.625 % matched basal values and 131.963 % matched basal values and 159.513 % matched basal values and 140.89 % matched basal values and 171.298 % matched basal values and 155.836 % matched basal values and 154.357 % matched basal values and 192.203 % matched basal values and 190.967 % matched basal values and 205.13 % matched basal values and 115.394 % matched basal values and 124.227 % matched basal values and 114.571 % matched basal values.

What about the “Effect on IP1 levels” value ([1]; 2 h) of the same compound?
Its value is “decreased IP1 levels”.

For `Nc1ncnc2c1ncn2[C@@H]1O[C@H](COP(=O)(O)OP(=O)(O)O)[C@@H](O)[C@H]1O` [ADP, adenosine diphosphate], which “ADP-induced change of Gαq/Gγ2 BRET signal” value (Human P2Y1-R; ADP 10 μM, 1 min, result in words) is on record?
The value was “significant but moderate decrease of the BRET signal”.

And the “ADP-modulated BRET” value (Human P2Y1-R; P2Y1-R, ADP 10 μM, 1 min, individual experiments)?
The value was -0.02511 and -0.01906 and -0.00821 and -0.04045 and -0.02327 and -0.02843.

And the “Effect on IP1 levels” value ([1]; 2 h)?
The value was “significantly increased”.
